According to US10526385B2, “YAP protein inhibiting polypeptide and application thereof” (BAO KANG BIOMEDICAL HEALTHCARE INC, priority 2013, dated 2020):
Where two headings read alike, the source gives them in different places. Where a SMILES comes first, the peptide text is derived from it. Bridges are numbered along the chain shown (N, C = ends). [ ]: non-standard residue; d: D form. Phe(3-Cl) = N[C@@H](Cc1cccc(Cl)c1)C(=O)O; hCys = N[C@@H](CCS)C(=O)O; Nle = CCCC[C@H](N)C(=O)O

Experiments:
[1] = test system: hepatoma cell line BEL7404; assay type: cell-based; conditions: for YAP inhibitory activity: summary of Table 8 in words
Procedure: (§1) The hepatoma cell line BEL7404 (purchased from The Chinese Academy of Sciences cell bank) was a cell line with high expression of YAP protein; HCCLM3 (purchased from The Chinese Academy of Sciences cell bank) was a cell line with low expression of YAP protein. The hepatoma cell lines (BEL7404 or HCCLM3) were inoculated into a 96-well plate at the concentration of 2000 cells/well, and incubated overnight in RPMI1640 containing 1% bovine serum at 37° C. The hepatoma cell lines were treated with polypeptides having different concentrations at 37° C. for 72 h.
(§2) Moreover, IC50 values of the cells in 1.1 were determined using CCK-8 kit.
(§3) The polypeptide represented by SEQ ID NO.:1 was further modified. The IC50 values of the polypeptides at a concentration of 1% in cell cultivating for 72 h were measured.

[2] = test system: hepatoma cell line HCCLM3; assay type: cell-based
Procedure: as §1, §2, §3

[3] = Table 8, at a concentration of 1% in cell cultivating for 72 h, unit inferred, read-out: IC50 BEL7404
[4] = Table 8, at a concentration of 1% in cell cultivating for 72 h, unit inferred, read-out: IC50 HCCLM3

| IC50 [1, 3] [µM] | IC50 [2, 4] [µM] | Molecule | also measured |
| --- | --- | --- | --- |
| – | – | CSCC[C@H](NC(=O)[C@H](CCCNC(=N)N)NC(=O)[C@@H](N)CCCNC(=N)N)C(=O)N[C@@H](CCCCN)C(=O)N[C@@H](Cc1c[nH]c2ccccc12)C(=O)N[C@@H](CCCCN)C(=O)N[C@@H](CCCCN)C(=O)N1CCC[C@H]1C(=O)N[C@@H](CCC(N)=O)C(=O)NCC(=O)N[C@@H](CCC(N)=O)C(=O)NCC(=O)N1CCC[C@H]1C(=O)N1CCC[C@H]1C(=O)N[C@@H](CO)C(=O)NCC(=O)N1CCC[C@H]1C(=O)NCC(=O)N[C@@H](CCC(N)=O)C(=O)N1CCC[C@H]1C(=O)N[C@@H](C)C(=O)N1CCC[C@H]1C(=O)N[C@@H](C)C(=O)O [SEQ ID NO.: 16] | IC50 ([1]; 72 h): 242 ± 27.2 µM; IC50 ([2]; 72 h): > 1000 µM |
| – | – | CSCC[C@H](NC(=O)[C@H](CCC(=O)O)NC(=O)[C@H](Cc1c[nH]c2ccccc12)NC(=O)CNC(=O)[C@H](C)NC(=O)[C@@H]1CCCN1C(=O)[C@H](CCCCN)NC(=O)[C@H](CCCCN)NC(=O)[C@H](Cc1c[nH]c2ccccc12)NC(=O)[C@H](CCCCN)NC(=O)[C@H](CCSC)NC(=O)[C@H](CCCNC(=N)N)NC(=O)[C@@H](N)CCCNC(=N)N)C(=O)N[C@@H](C)C(=O)N[C@@H](CCCCN)C(=O)N[C@H](C(=O)N[C@@H](CO)C(=O)N[C@@H](CO)C(=O)NCC(=O)N[C@@H](CCC(N)=O)C(=O)N[C@@H](CCCNC(=N)N)C(=O)N[C@@H](Cc1ccc(O)cc1)C(=O)N[C@@H](Cc1ccccc1)C(=O)O)[C@@H](C)O [SEQ ID NO.: 20] | IC50 ([1]; 72 h): 444 ± 46.5 µM; IC50 ([2]; 72 h): > 1000 µM |
| 60.2 ± 15.2 | < 1000 | CCCC[C@@H]1NC(=O)[C@H](CCCCN)NC(=O)[C@H](CCCCN)NC(=O)[C@H](CC(C)C)NC(=O)[C@@H](NC(=O)[C@H](Cc2cccc(Cl)c2)NC(=O)[C@@H]2CCCN2C(=O)[C@@H](N)C(C)C)CCSSC[C@@H](C(=O)N[C@@H](CCCCN)C(=O)N2CCC[C@H]2C(=O)N2CCC[C@H]2C(=O)N[C@@H](CCCNC(=N)N)C(=O)N[C@@H](CCCNC(=N)N)C(=O)N[C@@H](CCSC)C(=O)N[C@@H](CCCCN)C(=O)N[C@@H](Cc2c[nH]c3ccccc23)C(=O)N[C@@H](CCCCN)C(=O)N[C@@H](CCCCN)C(=O)O)NC(=O)[C@H](Cc2ccccc2)NC(=O)[C@H](CO)NC(=O)[C@H](CC(=O)O)NC(=O)[C@@H]2CCCN2C1=O [compound 27] (H-VP[Phe(3-Cl)][hCys]LKK[Nle]PDSFCKPPRRMKWKK-OH; disulfide 4-13) | – |
| 16.2 ± 1.9 | 107 ± 23.2 | CCCC[C@@H]1NC(=O)[C@H](CCCCN)NC(=O)[C@H](CCCCN)NC(=O)[C@H](CC(C)C)NC(=O)[C@H](Cc2cccc(Cl)c2)NC(=O)[C@@H](NC(=O)[C@@H]2CCCN2C(=O)[C@@H](N)C(C)C)CCSSC[C@@H](C(=O)N[C@@H](Cc2ccccc2)C(=O)N[C@@H](CCCCN)C(=O)N2CCC[C@H]2C(=O)N2CCC[C@H]2C(=O)N[C@@H](CCCNC(=N)N)C(=O)N[C@@H](CCCNC(=N)N)C(=O)N[C@@H](CCSC)C(=O)N[C@@H](CCCCN)C(=O)N[C@@H](Cc2c[nH]c3ccccc23)C(=O)N[C@@H](CCCCN)C(=O)N[C@@H](CCCCN)C(=O)O)NC(=O)[C@H](CO)NC(=O)[C@H](C)NC(=O)[C@@H]2CCCN2C1=O [compound 31] (H-VP[hCys][Phe(3-Cl)]LKK[Nle]PASCFKPPRRMKWKK-OH; disulfide 3-12) | – |
| 28.2 ± 1.8 | 142 ± 9.4 | CCCC[C@@H]1NC(=O)[C@H](CCCCN)NC(=O)[C@H](CCCCN)NC(=O)[C@H](CC(C)C)NC(=O)[C@@H](NC(=O)[C@H](Cc2cccc(Cl)c2)NC(=O)[C@@H]2CCCN2C(=O)[C@@H](N)C(C)C)CSSCC[C@@H](C(=O)N[C@@H](CCCCN)C(=O)N2CCC[C@H]2C(=O)N2CCC[C@H]2C(=O)N[C@@H](CCCNC(=N)N)C(=O)N[C@@H](CCCNC(=N)N)C(=O)N[C@@H](CCSC)C(=O)N[C@@H](CCCCN)C(=O)N[C@@H](Cc2c[nH]c3ccccc23)C(=O)N[C@@H](CCCCN)C(=O)N[C@@H](CCCCN)C(=O)O)NC(=O)[C@H](Cc2ccccc2)NC(=O)[C@H](CO)NC(=O)[C@H](C)NC(=O)[C@@H]2CCCN2C1=O [compound 30] (H-VP[Phe(3-Cl)]CLKK[Nle]PASF[hCys]KPPRRMKWKK-OH; disulfide 4-13) | – |
| 62.7 ± 5.9 | > 1000 | CCCC[C@@H]1NC(=O)[C@@H](NC(=O)[C@H](Cc2cccc(Cl)c2)NC(=O)[C@@H]2CCCN2C(=O)[C@H](C)N)CCSSC[C@@H](C(=O)N[C@@H](CCCCN)C(=O)N2CCC[C@H]2C(=O)N2CCC[C@H]2C(=O)N[C@@H](CCCNC(=N)N)C(=O)N[C@@H](CCCNC(=N)N)C(=O)N[C@@H](CCSC)C(=O)N[C@@H](CCCCN)C(=O)N[C@@H](Cc2c[nH]c3ccccc23)C(=O)N[C@@H](CCCCN)C(=O)N[C@@H](CCCCN)C(=O)O)NC(=O)[C@H](Cc2ccccc2)NC(=O)[C@H](CO)NC(=O)[C@H](CC(=O)O)NC(=O)[C@@H]2CCCN2C(=O)[C@H](CCCC)NC(=O)[C@H](CCCCN)NC(=O)[C@H](CCCCN)NC1=O [compound 26] (H-AP[Phe(3-Cl)][hCys][Nle]KK[Nle]PDSFCKPPRRMKWKK-OH; disulfide 4-13) | – |
| 25.7 ± 3 | 67.3 ± 38.5 | CCCC[C@@H]1NC(=O)[C@H](CCCNC(=N)N)NC(=O)[C@H](CCCCN)NC(=O)[C@H](CC(C)C)NC(=O)[C@@H](NC(=O)[C@H](Cc2cccc(Cl)c2)NC(=O)[C@@H]2CCCN2C(=O)[C@@H](N)C(C)C)CCSSC[C@@H](C(=O)N[C@@H](CCCCN)C(=O)N2CCC[C@H]2C(=O)N2CCC[C@H]2C(=O)N[C@@H](CCCNC(=N)N)C(=O)N[C@@H](CCCNC(=N)N)C(=O)N[C@@H](CCSC)C(=O)N[C@@H](CCCCN)C(=O)N[C@@H](Cc2c[nH]c3ccccc23)C(=O)N[C@@H](CCCCN)C(=O)N[C@@H](CCCCN)C(=O)O)NC(=O)[C@H](Cc2ccccc2)NC(=O)[C@H](CO)NC(=O)[C@H](C)NC(=O)[C@@H]2CCCN2C1=O [compound 24] (H-VP[Phe(3-Cl)][hCys]LKR[Nle]PASFCKPPRRMKWKK-OH; disulfide 4-13) | – |
| 65.6 ± 8.9 | 254 ± 12.3 | CCCC[C@@H]1NC(=O)[C@H](CCCCN)NC(=O)[C@H](CCCCN)NC(=O)[C@H](CC(C)C)NC(=O)[C@@H](NC(=O)[C@H](Cc2cccc(Cl)c2)NC(=O)[C@@H]2CCCN2C(=O)[C@@H](N)C(C)C)CCSSC[C@@H](C(=O)N[C@@H](CCCCN)C(=O)N2CCC[C@H]2C(=O)N2CCC[C@H]2C(=O)N[C@@H](CCCNC(=N)N)C(=O)N[C@@H](CCCNC(=N)N)C(=O)N[C@@H](CCSC)C(=O)N[C@@H](CCCCN)C(=O)N[C@@H](Cc2c[nH]c3ccccc23)C(=O)N[C@@H](CCCCN)C(=O)N[C@@H](CCCCN)C(=O)O)NC(=O)[C@H](Cc2ccccc2)NC(=O)[C@H](CO)NC(=O)[C@H](CCC(=O)O)NC(=O)[C@@H]2CCCN2C1=O [compound 29] (H-VP[Phe(3-Cl)][hCys]LKK[Nle]PESFCKPPRRMKWKK-OH; disulfide 4-13) | – |
| 119 ± 7.1 | > 1000 | CCCC[C@@H]1NC(=O)[C@H](CCCCN)NC(=O)[C@H](CCCCN)NC(=O)[C@H](CC(C)C)NC(=O)[C@@H](NC(=O)[C@H](Cc2cccc(Cl)c2)NC(=O)[C@@H]2CCCN2C(=O)[C@H](C)N)CCSSC[C@@H](C(=O)N[C@@H](CCCCN)C(=O)N2CCC[C@H]2C(=O)N2CCC[C@H]2C(=O)N[C@@H](CCCNC(=N)N)C(=O)N[C@@H](CCCNC(=N)N)C(=O)N[C@@H](CCSC)C(=O)N[C@@H](CCCCN)C(=O)N[C@@H](Cc2c[nH]c3ccccc23)C(=O)N[C@@H](CCCCN)C(=O)N[C@@H](CCCCN)C(=O)O)NC(=O)[C@H](Cc2ccccc2)NC(=O)[C@H](CO)NC(=O)[C@H](CC(=O)O)NC(=O)[C@@H]2CCCN2C1=O [compound 25] (H-AP[Phe(3-Cl)][hCys]LKK[Nle]PDSFCKPPRRMKWKK-OH; disulfide 4-13) | – |
| – | – | CSCC[C@H](NC(=O)[C@H](CCCNC(=N)N)NC(=O)[C@@H](N)CCCNC(=N)N)C(=O)N[C@@H](CCCCN)C(=O)N[C@@H](Cc1c[nH]c2ccccc12)C(=O)N[C@@H](CCCCN)C(=O)N[C@@H](CCCCN)C(=O)N[C@H](C(=O)N[C@@H](C)C(=O)NCC(=O)N[C@@H](C)C(=O)N[C@@H](CC(C)C)C(=O)N[C@H](C(=O)N1CCC[C@H]1C(=O)N[C@@H](CCC(N)=O)C(=O)N[C@@H](Cc1c[nH]cn1)C(=O)N[C@H](C(=O)N[C@@H](CCCNC(=N)N)C(=O)N[C@@H](C)C(=O)N[C@@H](Cc1c[nH]cn1)C(=O)N[C@@H](CO)C(=O)N[C@@H](CO)C(=O)N1CCC[C@H]1C(=O)O)C(C)C)[C@@H](C)O)[C@@H](C)O [SEQ ID NO.: 18] | IC50 ([1]; 72 h): 816 ± 14.4 µM; IC50 ([2]; 72 h): > 1000 µM |
| 10.8 ± 2.1 | 81.1 ± 13.1 | CCCC[C@@H]1NC(=O)[C@@H](NC(=O)[C@H](CCCCN)NC(=O)[C@H](CCCCN)NC(=O)[C@H](CC(C)C)NC(=O)[C@H](Cc2cccc(Cl)c2)NC(=O)[C@@H]2CCCN2C(=O)[C@@H](N)C(C)C)CCSSC[C@@H](C(=O)N[C@@H](CCCNC(=N)N)C(=O)N[C@@H](CCCNC(=N)N)C(=O)N[C@@H](CCSC)C(=O)N[C@@H](CCCCN)C(=O)N[C@@H](Cc2c[nH]c3ccccc23)C(=O)N[C@@H](CCCCN)C(=O)N[C@@H](CCCCN)C(=O)O)NC(=O)[C@@H]2CCCN2C(=O)[C@@H]2CCCN2C(=O)[C@H](CCCCN)NC(=O)[C@H](Cc2ccccc2)NC(=O)[C@H](CO)NC(=O)[C@H](C)NC(=O)[C@@H]2CCCN2C1=O [compound 33] (H-VP[Phe(3-Cl)]LKK[hCys][Nle]PASFKPPCRRMKWKK-OH; disulfide 7-16) | – |
| – | – | VP(3-Cl)F-Hcy-LKK-Nle-PASFCKPP RRMKWKK [SEQ ID NO.: 23] | YAP inhibitory activity [1]: best inhibitory activity |
| – | – | VP(3-Cl)F-LKK-Hcy-Nle-PASFKPPC RRMKWKK [SEQ ID NO.: 33] | YAP inhibitory activity [1]: best inhibitory activity |
| – | – | VP(3-Cl)F-Hcy-LRK-Nle-PASFCKPP RRMKWKK [SEQ ID NO.: 21] | YAP inhibitory activity [1]: best inhibitory activity |
| – | – | VP-Hcy-(3-Cl)F-LKK-Nle-PASCFKPP RRMKWKK [SEQ ID NO.: 31] | YAP inhibitory activity [1]: best inhibitory activity |
